The record followed here is patent publication US20240376099A1, “COMPOUNDS AND COMPOSITIONS AS INHIBITORS OF ENDOSOMAL TOLL-LIKE RECEPTORS” (Novartis AG, priority 2016, published 2024).

What is called IC50 is the concentration at which inhibition is half-maximal.

The target in the assay is T1, TLR7 (Homo sapiens, UniProt Q9NYK1).
T1 construct: Fresh blood was collected from normal human donors; endogenous in cells; host or cells: human PBMCs from fresh donor blood
T1 sequence (Q9NYK1 27-1049): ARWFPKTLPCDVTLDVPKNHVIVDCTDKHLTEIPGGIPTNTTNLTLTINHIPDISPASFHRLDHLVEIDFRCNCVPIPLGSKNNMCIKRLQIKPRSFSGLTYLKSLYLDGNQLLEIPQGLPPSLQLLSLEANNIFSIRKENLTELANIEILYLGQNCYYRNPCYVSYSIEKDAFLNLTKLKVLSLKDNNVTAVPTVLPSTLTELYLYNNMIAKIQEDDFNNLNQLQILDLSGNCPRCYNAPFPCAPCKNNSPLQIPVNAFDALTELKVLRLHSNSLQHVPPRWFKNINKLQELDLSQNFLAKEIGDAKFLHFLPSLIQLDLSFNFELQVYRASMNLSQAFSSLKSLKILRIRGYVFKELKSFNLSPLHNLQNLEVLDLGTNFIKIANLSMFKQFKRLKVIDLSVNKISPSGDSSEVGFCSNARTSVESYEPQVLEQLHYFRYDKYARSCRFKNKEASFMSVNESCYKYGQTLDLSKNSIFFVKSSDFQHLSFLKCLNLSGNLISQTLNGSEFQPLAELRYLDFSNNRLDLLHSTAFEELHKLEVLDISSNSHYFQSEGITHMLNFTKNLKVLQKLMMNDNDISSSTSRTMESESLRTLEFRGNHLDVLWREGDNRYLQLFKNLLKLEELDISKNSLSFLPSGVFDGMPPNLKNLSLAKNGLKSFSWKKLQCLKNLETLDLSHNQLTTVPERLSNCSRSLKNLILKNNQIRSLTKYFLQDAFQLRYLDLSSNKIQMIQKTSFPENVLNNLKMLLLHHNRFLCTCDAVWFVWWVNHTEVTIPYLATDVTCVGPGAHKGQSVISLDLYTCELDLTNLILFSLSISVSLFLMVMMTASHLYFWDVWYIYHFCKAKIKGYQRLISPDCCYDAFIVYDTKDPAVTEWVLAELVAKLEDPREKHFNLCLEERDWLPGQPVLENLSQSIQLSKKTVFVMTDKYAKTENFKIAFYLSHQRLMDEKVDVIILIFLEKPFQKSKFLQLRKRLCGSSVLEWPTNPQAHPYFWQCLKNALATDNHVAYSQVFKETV
Put plainly: huPBMC TLR7 Antagonist IFNα Assay. As to conditions: human PBMCs stimulated with ssRNA40 10 μg/mL (DOTAP), 14-16 hrs; IFNα2b AlphaLISA read-out. Format: cell-based. A digest of the protocol: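 Human PBMCs from fresh donor blood (150,000 cells/well) stimulated 14–16 h at 37 °C with DOTAP-complexed ssRNA40 (final 1 μg/ml for TLR8, 10 μg/mL for TLR7) or ODN2216 (final 0.3 μM, TLR9), 0.25% DMSO, ten-point 1/3 compound dilutions. Supernatant IL-6 read by HTRF (TLR8); IFNα by IFNα2b AlphaLISA (TLR7/TLR9).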
In general terms: Bead proximity is the source of the signal in Alpha formats.
For `Cc1cc(N2CCc3c(c(C)nn3CC34CCC(N5CC[C@H](O)C5)(CC3)CC4)C2)c2cnn(C)c2n1` [compound 75, (S)-1-(4-((5-(1,6-dimethyl-1H-pyrazolo[3,4-b]pyridin-4-yl)-3-methyl-4,5,6,7-tetrahydro-1H-pyrazolo[4,3-c]pyridin-1-yl)methyl)bicyclo[2.2.2]octan-1-yl)pyrrolidin-3-ol], the IC50 is 11 nM. `Cc1cc(N2CCc3c(c(C)nn3CC34CCC(N(C)C5CCC5)(CC3)CC4)C2)c2cnn(C)c2n1` [compound 79, N-cyclobutyl-4-((5-(1,6-dimethyl-1H-pyrazolo[3,4-b]pyridin-4-yl)-3-methyl-4,5,6,7-tetrahydro-1H-pyrazolo[4,3-c]pyridin-1-yl)methyl)-N-methylbicyclo[2.2.2]octan-1-amine]: the IC50 stood at 4 nM.

With `Cc1cc(N2CCc3c(c(C)nn3CC34CCC(N5C[C@H](O)[C@@H](O)C5)(CC3)CC4)C2)c2cnn(C)c2n1` [compound 80, (3S,4S)-1-(4-((5-(1,6-dimethyl-1H-pyrazolo[3,4-b]pyridin-4-yl)-3-methyl-4,5,6,7-tetrahydro-1H-pyrazolo[4,3-c]pyridin-1-yl)methyl)bicyclo[2.2.2]octan-1-yl)pyrrolidine-3,4-diol], the IC50 stood at 2 nM. The figure for `Cc1nn(CC23CCC(N4CCCC4)(CC2)CC3)c2c1CN(c1ccnc(-c3ccccc3)c1)CC2` [compound 85, 3-methyl-5-(2-phenylpyridin-4-yl)-1-((4-(pyrrolidin-1-yl)bicyclo[2.2.2]octan-1-yl)methyl)-4,5,6,7-tetrahydro-1H-pyrazolo[4,3-c]pyridine] is 46 nM. Under `Cc1cc(N2CCc3c(c(C)nn3CC34CCC(N5CCCC5)(CC3)CC4)C2)c2ccncc2n1` [compound 86, 2-methyl-4-(3-methyl-1-((4-(pyrrolidin-1-yl)bicyclo[2.2.2]octan-1-yl)methyl)-6,7-dihydro-1H-pyrazolo[4,3-c]pyridin-5(4H)-yl)-1,7-naphthyridine] stands 81 nM.

Regarding `Cc1cc(N2CCc3c(c(C)nn3CCC34CCC(N)(CC3)CC4)C2)c2cnn(C)c2n1` [compound 91, 4-(2-(5-(1,6-dimethyl-1H-pyrazolo[3,4-b]pyridin-4-yl)-3-methyl-4,5,6,7-tetrahydro-1H-pyrazolo[4,3-c]pyridin-1-yl)ethyl)bicyclo[2.2.2]octan-1-amine], the IC50 came to 22 nM. On to `Cc1cc(N2CCc3c(c(C)nn3CC34CCC(N)(CC3)CC4)C2)c2ccnc(C)c2n1` [compound 92, 4-((5-(2,8-dimethyl-1,7-naphthyridin-4-yl)-3-methyl-4,5,6,7-tetrahydro-1H-pyrazolo[4,3-c]pyridin-1-yl)methyl)bicyclo[2.2.2]octan-1-amine], for which the IC50 is 160 nM.
